Measured values taken from patent publication US8871751B2, “Compositions and methods relating to nuclear hormone and steroid hormone receptors including inhibitors of estrogen receptor alpha-mediated gene expression and inhibition of breast cancer” (The Board of Trustees of the University of Illinois, priority 2008, dated 2014).

Target: T1, human ERα binding to flcERE (Homo sapiens, UniProt P03372)
T1 construct: Full-length FLAG-tagged human ERα was expressed and purified as described previously (27); FLAG; made in house
T1 sequence (P03372 1-595): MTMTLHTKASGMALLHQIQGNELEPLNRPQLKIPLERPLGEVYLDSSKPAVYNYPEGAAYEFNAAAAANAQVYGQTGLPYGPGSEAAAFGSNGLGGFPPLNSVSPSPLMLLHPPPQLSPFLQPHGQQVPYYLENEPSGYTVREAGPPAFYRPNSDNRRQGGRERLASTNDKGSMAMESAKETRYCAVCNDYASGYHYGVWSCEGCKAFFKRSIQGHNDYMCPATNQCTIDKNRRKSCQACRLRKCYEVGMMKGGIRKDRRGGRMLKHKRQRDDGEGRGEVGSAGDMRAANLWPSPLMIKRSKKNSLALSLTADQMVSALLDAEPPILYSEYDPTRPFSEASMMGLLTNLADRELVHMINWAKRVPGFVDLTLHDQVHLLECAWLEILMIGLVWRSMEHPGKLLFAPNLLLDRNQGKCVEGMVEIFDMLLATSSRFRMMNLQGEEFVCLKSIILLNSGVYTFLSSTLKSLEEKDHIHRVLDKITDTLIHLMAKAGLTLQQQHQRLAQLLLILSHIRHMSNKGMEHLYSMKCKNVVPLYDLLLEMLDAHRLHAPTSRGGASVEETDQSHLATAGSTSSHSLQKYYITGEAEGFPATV
Experiment: FAMA: inhibition of ERα binding to flcERE
Settings: FAMA, binding to HRE, 5 concentrations 0.5-10 μM, sequential method; read-out: IC50 ERα
Description: Prior to screening, the 10 mM library stocks were diluted to produce replica libraries in 384-well plates containing each small molecule at 0.25 mM (in DMSO). In our initial studies we were concerned that forming the flcERE-ERα complex first and then adding the candidate small molecule inhibitors would miss small molecules that bind at the interface. We therefore screened using the “sequential” method in which the candidate small molecules were first incubated with ERα and followed by addition of the flcERE. The assay for binding of ERα to the flcERE is a modification of our earlier assay (27). Assays were carried out at room temperature in black wall 384-well microplates (Greiner/Bio-One) in a total volume of 10 μl in buffer containing 20 mM Tris pH 7.5, 10% glycerol, 0.2 mM EDTA, 2 mM DTT, 100 mM KCl, 0.5 ng/μl poly dl:dC, […] bovine serum albumin and 100 nM 17β-estradiol (E2). For high throughput screening, a master mix without ERα and probe was prepared at 4° C. The master mix was divided into 2 parts. ERα was added to one part to 5 nM in the final assays. 7 μl of the ERα-containing mix was then dispensed into each well of a 384-well plate on ice. 100 nl of the compounds being tested was then added using a pin-transporter (V & P Scientific, Inc, CA) to a final concentration of 2.5 μM. The samples were mixed using the pin-transporter and sedimented by centrifugation for 2 min. at 4° C. and incubated on ice for 10 min. The flcERE probe was added to the other aliquot of the mix to 1 nM. 3 μl of the mix containing the flcERE probe was added to each well containing ERα and the test compound. The samples were mixed using the pin-transporter, the plates were briefly centrifuged and incubated at room temperature for 10 min. and fluorescence anisotropy (FA) was measured using a BMG PheraStar (BMG Labtech) microplate reader (module: 485 520) with excitation at 485λ and emission at 520λ. To identify small molecules that were highly fluorescent, or quench fluorescence, fluorescence intensity was also measured.
(§1) Dose response curves for selected compounds were carried out as described for the HTS screen except that each well contained the indicated concentration of test compound. PR assays were carried out in the same buffer used for ERα assays and contained 1 nM flcPRE and 11 nM PR-B and 100 nM progesterone. The buffer used for AR was similar but also contained 5 μM ZnCl, 5 mM NaF, 0.6 μM CHAPS and 100 nM dihydrotestosterone. AR assays contained 1 nM flcARE and 50 nM full-length wild-type AR.

IC50 [µM] | SMILES
3.8 | O=C(O)c1cccc(N=Nc2c(S(=O)(=O)O)ccc3c2C(=O)c2ccccc2C3=O)c1O [Compound 125908]
> 10 | O=C(O)c1nn(-c2ccc(Cl)cc2)c2c1C(=O)c1ccccc1C2=O [Compound 360494]

The next lines start with the compound.

SMILES | IC50 [µM]
CC1=NNC(=S)NCCCN2CCN(CCCNC(=S)NN=C(C)C=NNC(=S)NCCCN3CCN(CCCNC(=S)NN=C1)CC3)CC2 [Compound 91767] | 8
N#CC(C#N)=CNCCN1CCN(C=C(C#N)C#N)CC1 [Compound 343040] | > 10
CN1CCc2[nH]nc(-c3n[nH]c4c3CN(C)CC4)c2C1 [Compound 371847] | > 10

Target: T2, human androgen receptor (AR) binding to flARE (Homo sapiens, UniProt P10275)
T2 construct: AR assays contained 1 nM flcARE and 50 nM full-length wild-type AR; FLAG; made in house
T2 sequence (P10275 1-920): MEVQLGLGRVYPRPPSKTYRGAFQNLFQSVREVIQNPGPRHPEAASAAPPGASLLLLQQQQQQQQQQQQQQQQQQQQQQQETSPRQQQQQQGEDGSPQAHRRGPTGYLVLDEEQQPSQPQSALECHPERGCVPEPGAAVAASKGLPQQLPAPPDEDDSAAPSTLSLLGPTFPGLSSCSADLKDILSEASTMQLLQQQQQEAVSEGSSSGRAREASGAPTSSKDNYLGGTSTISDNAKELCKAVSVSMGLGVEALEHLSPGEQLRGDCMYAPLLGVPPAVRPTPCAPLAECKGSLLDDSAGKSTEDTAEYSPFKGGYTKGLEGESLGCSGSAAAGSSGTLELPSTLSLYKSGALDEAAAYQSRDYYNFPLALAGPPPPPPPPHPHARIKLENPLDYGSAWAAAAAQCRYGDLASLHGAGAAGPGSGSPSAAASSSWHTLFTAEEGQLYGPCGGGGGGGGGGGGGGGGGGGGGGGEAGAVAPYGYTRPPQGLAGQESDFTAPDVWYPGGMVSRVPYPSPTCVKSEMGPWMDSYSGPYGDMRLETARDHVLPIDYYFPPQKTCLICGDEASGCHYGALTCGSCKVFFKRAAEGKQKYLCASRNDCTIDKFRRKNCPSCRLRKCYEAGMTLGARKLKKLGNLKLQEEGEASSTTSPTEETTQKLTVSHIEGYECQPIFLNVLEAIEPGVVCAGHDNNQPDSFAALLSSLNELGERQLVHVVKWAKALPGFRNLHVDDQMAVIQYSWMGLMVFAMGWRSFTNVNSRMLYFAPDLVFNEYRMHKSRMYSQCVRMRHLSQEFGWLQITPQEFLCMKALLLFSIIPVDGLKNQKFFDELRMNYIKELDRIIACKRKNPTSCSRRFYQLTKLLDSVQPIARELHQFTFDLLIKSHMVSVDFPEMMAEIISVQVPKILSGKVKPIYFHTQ
Experiment: FAMA: inhibition of AR binding to flcARE
Settings: binding to HRE, 5 concentrations 0.5-10 μM, sequential method
Description: as §1
(§2) Specificity was evaluated in dose-response studies by quantitative FAMA using purified full-length human PR binding to a fluorescein-labeled progesterone/glucocorticoid response element (flPRE) and full-length human androgen receptor (AR) binding to a fluorescein-labeled androgen response element (flARE).

IC50 [µM] | SMILES
> 10 | O=C(O)c1cccc(N=Nc2c(S(=O)(=O)O)ccc3c2C(=O)c2ccccc2C3=O)c1O [Compound 125908]
> 10 | O=C(O)c1nn(-c2ccc(Cl)cc2)c2c1C(=O)c1ccccc1C2=O [Compound 360494]

Second part, the compound before the results:

SMILES | IC50 [µM]
CC1=NNC(=S)NCCCN2CCN(CCCNC(=S)NN=C(C)C=NNC(=S)NCCCN3CCN(CCCNC(=S)NN=C1)CC3)CC2 [Compound 91767] | > 10
N#CC(C#N)=CNCCN1CCN(C=C(C#N)C#N)CC1 [Compound 343040] | > 10
CN1CCc2[nH]nc(-c3n[nH]c4c3CN(C)CC4)c2C1 [Compound 371847] | > 10

Target: T3, human PR-B binding to flPRE (Homo sapiens, UniProt P06401)
T3 construct: FLAG; made in house
T3 sequence (P06401 1-933): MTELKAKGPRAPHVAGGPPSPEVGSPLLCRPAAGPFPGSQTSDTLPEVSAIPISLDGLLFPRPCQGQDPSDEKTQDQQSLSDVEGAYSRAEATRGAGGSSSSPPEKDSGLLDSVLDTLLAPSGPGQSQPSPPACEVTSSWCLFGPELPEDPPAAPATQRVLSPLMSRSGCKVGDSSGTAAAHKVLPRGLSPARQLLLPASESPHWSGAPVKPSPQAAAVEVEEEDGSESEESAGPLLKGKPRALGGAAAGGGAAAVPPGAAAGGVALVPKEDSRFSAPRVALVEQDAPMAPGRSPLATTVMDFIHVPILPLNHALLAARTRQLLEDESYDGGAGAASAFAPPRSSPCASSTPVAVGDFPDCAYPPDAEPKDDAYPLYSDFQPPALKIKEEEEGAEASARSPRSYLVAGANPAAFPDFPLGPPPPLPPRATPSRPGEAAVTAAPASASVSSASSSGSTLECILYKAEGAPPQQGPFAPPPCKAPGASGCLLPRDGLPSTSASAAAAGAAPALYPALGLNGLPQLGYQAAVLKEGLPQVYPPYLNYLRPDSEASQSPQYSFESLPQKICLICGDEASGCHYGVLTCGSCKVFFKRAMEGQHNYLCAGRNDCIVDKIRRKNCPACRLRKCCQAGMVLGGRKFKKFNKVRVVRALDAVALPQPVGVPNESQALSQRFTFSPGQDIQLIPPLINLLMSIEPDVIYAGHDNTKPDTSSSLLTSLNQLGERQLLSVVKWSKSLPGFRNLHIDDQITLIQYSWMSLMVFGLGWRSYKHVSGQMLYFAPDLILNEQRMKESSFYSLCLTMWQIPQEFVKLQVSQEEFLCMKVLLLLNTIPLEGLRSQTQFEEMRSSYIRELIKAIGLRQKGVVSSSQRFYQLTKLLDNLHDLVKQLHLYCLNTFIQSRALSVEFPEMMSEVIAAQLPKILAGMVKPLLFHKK
Experiment: FAMA: inhibition of PR binding to flcPRE
Settings: binding to HRE, 5 concentrations 0.5-10 μM, sequential method
Description: as §1, §2

IC50 [µM] | SMILES
> 10 | O=C(O)c1cccc(N=Nc2c(S(=O)(=O)O)ccc3c2C(=O)c2ccccc2C3=O)c1O [Compound 125908]
> 10 | O=C(O)c1nn(-c2ccc(Cl)cc2)c2c1C(=O)c1ccccc1C2=O [Compound 360494]

Continued, compound first:

SMILES | IC50 [µM]
CC1=NNC(=S)NCCCN2CCN(CCCNC(=S)NN=C(C)C=NNC(=S)NCCCN3CCN(CCCNC(=S)NN=C1)CC3)CC2 [Compound 91767] | > 10
N#CC(C#N)=CNCCN1CCN(C=C(C#N)C#N)CC1 [Compound 343040] | > 10
CN1CCc2[nH]nc(-c3n[nH]c4c3CN(C)CC4)c2C1 [Compound 371847] | > 10

Target: T4, ERα (Homo sapiens, UniProt P03372)
T4 sequence (P03372 1-595): T1 sequence (P03372 1-595)
Experiment: (ERE)3-luciferase reporter gene assay in T47D-KBluc cells
Format: cell-based
Parameters: Using a stably transfected breast cancer cell line that expresses endogenous ERα; endogenous in cells; host or cells: T47D-KBluc
Settings: not given
Description: The T47D-KBluc cells stably express an (ERE)3-luciferase reporter gene (38). […] Four days before E2 induction, the cells were switched to the above medium, with 10% 2× charcoal-dextran-treated calf serum instead of FBS. 200,000 cells/well were transferred to each well of a 24-well plate. After 24 h the indicated concentrations of the test compounds were added in DMSO and E2 was added to 20 pM. After 24 h cells were washed once in PBS, and 150 μl 1× Passive Lysis Buffer (Promega, Madison Wis.) was used to lyse the cells. Luciferase activity was determined using firefly luciferase reagents from Promega (Madison, Wis.).
Reporter Gene Assays. […] AR was assayed in stably transfected HeLa cells and GR was assayed in stably transfected T47D cells maintained as described above. Four days before each experiment the cells were switched to medium containing CD-treated serum as described above. The HeLaAR cells were plated at 100,000 cells/well and the T47D/A1-2 and T47D-KBluc cells were plated at 200,000 cells/well in 1 ml of their respective media in 24-well plates. After 24 hours the indicated concentrations of E2, dihydrotestosterone (DHT) or dexamethasone (Dex) and DMSO vehicle, with or without TPSF, were added to each well. After 24 hours, the cells were washed once in phosphate buffered saline and lysed using 100 μl of 1× Passive Lysis Buffer (Promega, Madison Wis.). Luciferase activity was determined using BrightGlo firefly luciferase reagent from Promega (Madison, Wis.).

potency as ERα inhibitor relative to TPSF (less potent) [fold] | SMILES
~13 | Cn1c(=S)c2[nH]c(SCCCc3ccccc3)nc2n(C)c1=O [Compound 99676]

Same assay, conditions: T47D (ERE)3-Luc cells, 24 h, FIG. 13; E2 concentration for 99676 not stated; read-out: IC50 for inhibition of ERα-mediated gene expression

IC50 [µM] | SMILES
9 | Cn1c(=S)c2[nH]c(SCCCc3ccccc3)nc2n(C)c1=O [Compound 99676]
